Measurements published in PubChem BioAssay AID1745844 (Carcinogenic Potency Database (CPDB), 2022).
Activity calls are given as the source filed them. How the calls were made is not given here.

System: rodent lifetime carcinogenesis bioassay, tumor incidence TD50
Experiment: carcinogenic potency in animals, long-term in vivo studies, CPDB compilation (AID 1745844)

Question: Cc1ccc2c(-c3ccccc3)nc(=O)n(C(C)C)c2c1 was tested. Which carcinogen call (mouse, strain Charles River CD1, females, in feed, site: liver, lesion: hemangioendothelial sarcoma, dosed 86 weeks, study length 86 weeks) did it give?
Answer: negative (inactive)

Question: And the TD50 (mouse, strain Charles River CD1, females, in feed, site: liver, lesion: hemangioma, dosed 86 weeks, study length 86 weeks)?
Answer: 48700 mg/kg/day (inactive)

Question: What about the carcinogen call (mouse, strain Charles River CD1, females, in feed, site: liver, lesion: hepatocellular carcinoma, dosed 86 weeks, study length 86 weeks) of the same compound?
Answer: negative (inactive)

Question: What about the carcinogen call (mouse, strain Charles River CD1, females, in feed, site: lung, lesion: alveolar/bronchiolar adenoma, dosed 86 weeks, study length 86 weeks) of the same compound?
Answer: negative (inactive)

Question: What about the carcinogen call (mouse, strain Charles River CD1, females, in feed, site: lung, lesion: alveolar/bronchiolar carcinoma, dosed 86 weeks, study length 86 weeks) of the same compound?
Answer: negative (inactive)

Question: What about the TD50 (mouse, strain Charles River CD1, males, in feed, site: liver, lesion: hemangioma, dosed 86 weeks, study length 86 weeks) of the same compound?
Answer: 14000 mg/kg/day (inactive)

Question: What about the TD50 (mouse, strain Charles River CD1, males, in feed, site: liver, lesion: hepatocellular carcinoma, dosed 86 weeks, study length 86 weeks) of the same compound?
Answer: 4350 mg/kg/day (inactive)

Question: And the TD50 (mouse, strain Charles River CD1, males, in feed, site: lung, lesion: alveolar/bronchiolar adenoma, dosed 86 weeks, study length 86 weeks)?
Answer: 5450 mg/kg/day (inactive)

Question: What about the carcinogen call (mouse, strain Charles River CD1, males, in feed, site: lung, lesion: alveolar/bronchiolar carcinoma, dosed 86 weeks, study length 86 weeks) of the same compound?
Answer: negative (inactive)

Question: What does the source list for O=C1c2ccccc2C(=O)N1SC(Cl)(Cl)Cl?
Answer: carcinogen call (mouse, strain B6AKF1, females, oral dosing, site: any site (literature study), lesion: several types, types named in the paper, dosed 76 weeks, study length 76 weeks): negative (inactive); carcinogen call (mouse, strain B6AKF1, females, oral dosing, site: liver, lesion: hepatoma, dosed 76 weeks, study length 76 weeks): negative (inactive); carcinogen call (mouse, strain B6AKF1, females, oral dosing, site: lung, lesion: adenoma, dosed 76 weeks, study length 76 weeks): negative (inactive); carcinogen call (mouse, strain B6AKF1, males, oral dosing, site: any site (literature study), lesion: several types, types named in the paper, dosed 76 weeks, study length 76 weeks): negative (inactive); TD50 (mouse, strain B6AKF1, males, oral dosing, site: liver, lesion: hepatoma, dosed 76 weeks, study length 76 weeks): 8230 mg/kg/day (inactive); carcinogen call (mouse, strain B6AKF1, males, oral dosing, site: lung, lesion: adenoma, dosed 76 weeks, study length 76 weeks): negative (inactive); TD50 (mouse, strain B6C3F1, females, in feed, site: all sites, lesion: malignant lymphoma, dosed 104 weeks, study length 104 weeks): 2200 mg/kg/day; TD50 (mouse, strain B6C3F1, females, in feed, site: duodenum, lesion: adenocarcinoma, dosed 104 weeks, study length 104 weeks): 2090 mg/kg/day; TD50 (mouse, strain B6C3F1, females, in feed, site: duodenum, lesion: adenoma, dosed 104 weeks, study length 104 weeks): 29200 mg/kg/day; TD50 (mouse, strain B6C3F1, females, in feed, site: duodenum, lesion: several types, types named in the paper, dosed 104 weeks, study length 104 weeks): 1670 mg/kg/day; TD50 (mouse, strain B6C3F1, females, in feed, site: liver, lesion: several types, types named in the paper, dosed 104 weeks, study length 104 weeks): 18900 mg/kg/day; TD50 (mouse, strain B6C3F1, females, in feed, site: stomach, nonglandular, lesion: several types, types named in the paper, dosed 104 weeks, study length 104 weeks): 6000 mg/kg/day; TD50 (mouse, strain B6C3F1, females, in feed, site: stomach, nonglandular, lesion: squamous-cell papilloma, dosed 104 weeks, study length 104 weeks): 5780 mg/kg/day; TD50 (mouse, strain B6C3F1, females, oral dosing, site: any site (literature study), lesion: several types, types named in the paper, dosed 76 weeks, study length 76 weeks): 260 mg/kg/day (inactive); carcinogen call (mouse, strain B6C3F1, females, oral dosing, site: liver, lesion: hepatoma, dosed 76 weeks, study length 76 weeks): negative (inactive); carcinogen call (mouse, strain B6C3F1, females, oral dosing, site: lung, lesion: several types, types named in the paper, dosed 76 weeks, study length 76 weeks): negative (inactive); TD50 (mouse, strain B6C3F1, males, in feed, site: duodenum, lesion: adenocarcinoma, dosed 104 weeks, study length 104 weeks): 981 mg/kg/day; TD50 (mouse, strain B6C3F1, males, in feed, site: duodenum, lesion: adenoma, dosed 104 weeks, study length 104 weeks): 23000 mg/kg/day; TD50 (mouse, strain B6C3F1, males, in feed, site: duodenum, lesion: several types, types named in the paper, dosed 104 weeks, study length 104 weeks): 899 mg/kg/day; TD50 (mouse, strain B6C3F1, males, in feed, site: stomach, nonglandular, lesion: several types, types named in the paper, dosed 104 weeks, study length 104 weeks): 5460 mg/kg/day; TD50 (mouse, strain B6C3F1, males, in feed, site: stomach, nonglandular, lesion: squamous-cell carcinoma, dosed 104 weeks, study length 104 weeks): 13100 mg/kg/day; TD50 (mouse, strain B6C3F1, males, in feed, site: stomach, nonglandular, lesion: squamous-cell papilloma, dosed 104 weeks, study length 104 weeks): 12900 mg/kg/day; TD50 (mouse, strain B6C3F1, males, oral dosing, site: any site (literature study), lesion: several types, types named in the paper, dosed 76 weeks, study length 76 weeks): 87.7 mg/kg/day (inactive); TD50 (mouse, strain B6C3F1, males, oral dosing, site: liver, lesion: hepatoma, dosed 76 weeks, study length 76 weeks): 242 mg/kg/day (inactive); TD50 (mouse, strain B6C3F1, males, oral dosing, site: lung, lesion: adenoma, dosed 76 weeks, study length 76 weeks): 156 mg/kg/day (inactive); TD50 (mouse, strain Charles River CD1, females, in feed, site: digestive tract, lesion: several types, types named in the paper, dosed 112 weeks, study length 112 weeks): 2380 mg/kg/day; TD50 (mouse, strain Charles River CD1, females, in feed, site: duodenum, lesion: adenocarcinoma, dosed 112 weeks, study length 112 weeks): 3310 mg/kg/day; TD50 (mouse, strain Charles River CD1, females, in feed, site: duodenum, lesion: adenoma, dosed 112 weeks, study length 112 weeks): 7280 mg/kg/day; TD50 (mouse, strain Charles River CD1, males, in feed, site: digestive tract, lesion: several types, types named in the paper, dosed 112 weeks, study length 112 weeks): 2190 mg/kg/day; TD50 (mouse, strain Charles River CD1, males, in feed, site: duodenum, lesion: adenocarcinoma, dosed 112 weeks, study length 112 weeks): 2400 mg/kg/day; TD50 (mouse, strain Charles River CD1, males, in feed, site: duodenum, lesion: adenoma, dosed 112 weeks, study length 112 weeks): 10300 mg/kg/day; TD50 (mouse, strain Charles River CD1, males, in feed, site: stomach, nonglandular, lesion: papilloma, dosed 112 weeks, study length 112 weeks): 13400 mg/kg/day; TD50 (rat, strain Charles River CD (Sprague-Dawley), males, in feed, site: testis, lesion: interstitial-cell tumor, dosed 104 weeks, study length 104 weeks): 839 mg/kg/day; TD50 (rat, strain Charles River CD (Sprague-Dawley), males, in feed, site: thyroid gland, lesion: several types, types named in the paper, dosed 104 weeks, study length 104 weeks): 2940 mg/kg/day; TD50 (rat, strain Fischer 344, females, in feed, site: all sites, lesion: malignant lymphoma, dosed 104 weeks, study length 104 weeks): 947 mg/kg/day; TD50 (rat, strain Fischer 344, males, in feed, site: all sites, lesion: malignant lymphoma, dosed 104 weeks, study length 104 weeks): 1070 mg/kg/day

Question: Which results are given for O=C(OOC(=O)c1ccccc1)c1ccccc1?
Answer: carcinogen call (mouse, strain albino, both sexes, in feed, site: liver, lesion: hepatoma, dosed 80 weeks, study length 80 weeks): negative (inactive); carcinogen call (mouse, strain albino, both sexes, in feed, site: lung, lesion: adenoma, dosed 80 weeks, study length 80 weeks): negative (inactive); TD50 (rat, strain albino, both sexes, in feed, site: any site (literature study), lesion: benign tumor, dosed 120 weeks, study length 120 weeks): 6480 mg/kg/day (inactive); TD50 (rat, strain albino, both sexes, in feed, site: any site (literature study), lesion: malignant tumor, dosed 120 weeks, study length 120 weeks): 15600 mg/kg/day (inactive); carcinogen call (rat, strain albino, both sexes, in feed, site: liver, lesion: malignant hepatoma, dosed 120 weeks, study length 120 weeks): negative (inactive)

Question: With CN(C)c1ccccc1 as the compound, how does the TD50 (mouse, strain B6C3F1, females, by gavage, site: any site (literature study), lesion: several types, types named in the paper, dosed 103 weeks, study length 104 weeks) read?
Answer: 108 mg/kg/day

Question: What about the TD50 (mouse, strain B6C3F1, females, by gavage, site: forestomach, lesion: squamous-cell papilloma, dosed 103 weeks, study length 104 weeks) of the same compound?
Answer: 99.3 mg/kg/day

Question: What about the TD50 (mouse, strain B6C3F1, females, by gavage, site: liver, lesion: hepatocellular adenoma + hepatocellular carcinoma + neoplastic nodule, dosed 103 weeks, study length 104 weeks) of the same compound?
Answer: 163 mg/kg/day

Question: And the TD50 (mouse, strain B6C3F1, females, by gavage, site: lung, lesion: alveolar/bronchiolar adenoma + alveolar/bronchiolar carcinoma, dosed 103 weeks, study length 104 weeks)?
Answer: 276 mg/kg/day

Question: What about the TD50 (mouse, strain B6C3F1, males, by gavage, site: any site (literature study), lesion: several types, types named in the paper, dosed 103 weeks, study length 104 weeks) of the same compound?
Answer: 489 mg/kg/day (inactive)

Question: What about the TD50 (mouse, strain B6C3F1, males, by gavage, site: liver, lesion: hepatocellular adenoma + hepatocellular carcinoma + neoplastic nodule, dosed 103 weeks, study length 104 weeks) of the same compound?
Answer: 216 mg/kg/day

Question: And the TD50 (mouse, strain B6C3F1, males, by gavage, site: lung, lesion: alveolar/bronchiolar adenoma + alveolar/bronchiolar carcinoma, dosed 103 weeks, study length 104 weeks)?
Answer: 102 mg/kg/day

Question: What about the carcinogen call (rat, strain Fischer 344, females, by gavage, site: any site (literature study), lesion: several types, types named in the paper, dosed 103 weeks, study length 104 weeks) of the same compound?
Answer: negative (inactive)

Question: What about the TD50 (rat, strain Fischer 344, males, by gavage, site: any site (literature study), lesion: several types, types named in the paper, dosed 103 weeks, study length 104 weeks) of the same compound?
Answer: 93.2 mg/kg/day

Question: And the TD50 (rat, strain Fischer 344, males, by gavage, site: splenic red pulp, lesion: osteosarcoma + sarcoma, NOS, dosed 103 weeks, study length 104 weeks)?
Answer: 125 mg/kg/day

Question: And the TD50 (rat, strain Fischer 344, males, by gavage, site: splenic red pulp, lesion: sarcoma, NOS, dosed 103 weeks, study length 104 weeks)?
Answer: 175 mg/kg/day

Question: Which carcinogen call (mouse, strain BALB/c, males, in feed, site: liver, lesion: one or several types, types not named, dosed 60 weeks, study length 104 weeks) does the source give for [Cl][Hg] here?
Answer: negative (inactive)

Question: And the carcinogen call (mouse, strain BALB/c, males, in feed, site: lung, lesion: one or several types, types not named, dosed 60 weeks, study length 104 weeks)?
Answer: negative (inactive)

Question: For NC(=S)C(N)=S, which TD50 (rat, strain Charles River CD (Sprague-Dawley), females, in feed, site: mammary gland, lesion: one or several types, types not named, dosed 78 weeks, study length 104 weeks) is on record?
Answer: 12.6 mg/kg/day
